From ChEMBL document CHEMBL6182949 (J Med Chem, 2025)
In brackets after ≈: the same amount, converted by molar mass. Activity calls are given as the source filed them. The calls are words filed in the database; no cut-off is given here.

Columns and labels:
[1] = Metabolic stability in cynomolgus monkey liver microsome assessed as half life at 1 uM measured up to 60 mins in presence of NADPH by LC-MS/MS analysis; format: ADME, Macaca fascicularis; settings: liver microsomes
hERG (KCNH2) = hERG (KCNH2) (Homo sapiens, UniProt Q12809); assay: Inhibition of hERG expressed in HEK293 cells at 3 uM by manual patch clamp assay relative to control; format: toxicity, cell-based; settings: HEK293 cells expressing hERG
[2] = Metabolic stability human hepatocyte assessed as half life at 1 uM measured up to 120 mins by LC-MS/MS analysis; format: ADME, cell-based; settings: hepatocytes
[3] = Kinetic solubility of compound in FaSSGF at […] incubated for 2 hr by LC-MS analysis; format: physicochemical; settings: read-out: Kinetic_solubility
[4] = Plasma protein binding in human assessed as unbound fraction incubated for 2 hrs by rapid equilibrium dialysis; format: ADME, cell-free
[5] = Plasma protein binding in mouse assessed as unbound fraction incubated for 2 hrs by rapid equilibrium dialysis; format: ADME, cell-free
[6] = Clearance in male C57BL/6 mouse at 2 mg/kg, iv measured up to 24 hrs by LC-MS/MS analysis; format: ADME, organism-based; settings: in vivo
[7] = Cmax in male C57BL/6 mouse at 10 mg/kg, po measured up to 24 hrs by LC-MS/MS analysis; format: ADME, organism-based; settings: in vivo
[8] = AUClast in male C57BL/6 mouse at 10 mg/kg, po measured up to 24 hrs by LC-MS/MS analysis; format: ADME, organism-based; settings: in vivo
[9] = Half life in male C57BL/6 mouse at 10 mg/kg, po measured up to 24 hrs by LC-MS/MS analysis; format: ADME, organism-based; settings: in vivo
[10] = Oral bioavailability in male C57BL/6 mouse at 10 mg/kg measured up to 24 hrs by LC-MS/MS analysis; format: ADME, organism-based; settings: in vivo
[11] = Cmax in Sprague-Dawley rat at 2 mg/kg, iv measured up to 24 hrs by LC-MS/MS analysis; format: ADME, organism-based; settings: in vivo
[12] = AUClast in Sprague-Dawley rat at 2 mg/kg, iv measured up to 24 hrs by LC-MS/MS analysis; format: ADME, organism-based; settings: in vivo
[13] = AUClast in Sprague-Dawley rat at 10 mg/kg, po measured up to 24 hrs by LC-MS/MS analysis; format: ADME, organism-based; settings: in vivo
[14] = Half life in Sprague-Dawley rat at 10 mg/kg, po measured up to 24 hrs by LC-MS/MS analysis; format: ADME, organism-based; settings: in vivo
[15] = Oral bioavailability in Sprague-Dawley rat at 10 mg/kg measured up to 24 hrs by LC-MS/MS analysis; format: ADME, organism-based; settings: in vivo
[16] = AUClast in Beagle dog at 2 mg/kg, iv measured up to 24 hrs by LC-MS/MS analysis; format: ADME, organism-based, Canis lupus familiaris; settings: in vivo
[17] = Half life in Beagle dog at 2 mg/kg, iv measured up to 24 hrs by LC-MS/MS analysis; format: ADME, organism-based, Canis lupus familiaris; settings: in vivo
[18] = Tmax in Beagle dog at 10 mg/kg, po measured up to 24 hrs by LC-MS/MS analysis; format: ADME, organism-based, Canis lupus familiaris; settings: in vivo
[19] = AUClast in Beagle dog at 10 mg/kg, po measured up to 24 hrs by LC-MS/MS analysis; format: ADME, organism-based, Canis lupus familiaris; settings: in vivo
[20] = Oral bioavailability in Beagle dog at 10 mg/kg measured up to 24 hrs by LC-MS/MS analysis; format: ADME, organism-based, Canis lupus familiaris; settings: in vivo
[21] = Half life in cynomolgus monkey at 20 mg/kg, po measured up to 24 hrs by LC-MS/MS analysis; format: ADME, organism-based, Macaca fascicularis; settings: in vivo
CYP1A2 = target: T1, CYP1A2 (Homo sapiens, UniProt P05177); assay: Inhibition of CYP1A2 in human liver microsome using phenacetin as substrate at 10 uM preincubated for 5 mins followed by NADPH addition and measured after 20 mins by LC-MS/MS analysis relative to control; format: ADME; settings: human liver microsomes, probe phenacetin, time 25 min
T1 sequence (P05177 whole entry): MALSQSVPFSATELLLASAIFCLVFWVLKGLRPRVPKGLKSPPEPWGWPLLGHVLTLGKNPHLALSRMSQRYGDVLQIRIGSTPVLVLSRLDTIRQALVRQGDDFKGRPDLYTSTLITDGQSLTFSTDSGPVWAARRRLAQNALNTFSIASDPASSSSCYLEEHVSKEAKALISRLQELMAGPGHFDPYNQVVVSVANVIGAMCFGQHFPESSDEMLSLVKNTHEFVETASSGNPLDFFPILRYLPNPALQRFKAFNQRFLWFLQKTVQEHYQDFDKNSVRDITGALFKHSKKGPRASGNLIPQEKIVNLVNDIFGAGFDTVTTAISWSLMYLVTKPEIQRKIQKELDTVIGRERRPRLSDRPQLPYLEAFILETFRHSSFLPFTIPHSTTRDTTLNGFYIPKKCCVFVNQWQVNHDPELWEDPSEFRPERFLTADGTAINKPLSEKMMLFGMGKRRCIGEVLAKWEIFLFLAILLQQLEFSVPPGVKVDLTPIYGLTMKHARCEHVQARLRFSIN

CYP3A4 [22] = target: T2, CYP3A4 (Homo sapiens, UniProt P08684); assay: Inhibition of CYP3A4 in human liver microsome using midazolam as substrate at 10 uM preincubated for 5 mins followed by NADPH addition and measured after 10 mins by LC-MS/MS analysis relative to control; format: ADME; settings: human liver microsomes, probe midazolam, time 15 min
CYP3A4 [23] = target: T2, CYP3A4; assay: Inhibition of CYP3A4 in human liver microsome using testosterone as substrate at 10 uM preincubated for 5 mins followed by NADPH addition and measured after 10 mins by LC-MS/MS analysis relative to control; format: ADME; settings: human liver microsomes, probe testosterone, time 15 min
Mus musculus [24] = assay: Anti-psoriasis effect in IMQ-induced C57BL/6 mouse assessed as reduction in ear thickness at 10 mg/kg administered topically twice daily for 6 days and measured after 24 hrs; format: functional, organism-based; settings: time 7.0 day
Mus musculus [25] = assay: Anti-psoriasis effect in IMQ-induced C57BL/6 mouse assessed as reduction in ear thickness at 30 mg/kg administered topically twice daily for 6 days and measured after 24 hrs; format: functional, organism-based; settings: time 7.0 day

T2 sequence (P08684 whole entry): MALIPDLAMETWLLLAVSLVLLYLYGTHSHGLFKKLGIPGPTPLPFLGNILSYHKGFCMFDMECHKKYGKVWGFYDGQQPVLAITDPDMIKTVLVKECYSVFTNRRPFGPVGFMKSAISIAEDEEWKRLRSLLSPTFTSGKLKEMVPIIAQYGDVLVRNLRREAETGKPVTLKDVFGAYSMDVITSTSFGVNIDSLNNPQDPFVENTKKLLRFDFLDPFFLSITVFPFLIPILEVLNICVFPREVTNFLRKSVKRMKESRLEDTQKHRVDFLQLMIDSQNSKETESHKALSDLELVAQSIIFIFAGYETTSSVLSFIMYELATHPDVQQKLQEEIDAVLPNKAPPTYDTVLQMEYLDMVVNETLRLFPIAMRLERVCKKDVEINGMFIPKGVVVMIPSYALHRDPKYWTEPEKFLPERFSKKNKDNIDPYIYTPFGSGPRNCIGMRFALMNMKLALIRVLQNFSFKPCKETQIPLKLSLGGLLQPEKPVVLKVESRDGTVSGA
Chain of hERG (KCNH2) (Q12809 whole entry): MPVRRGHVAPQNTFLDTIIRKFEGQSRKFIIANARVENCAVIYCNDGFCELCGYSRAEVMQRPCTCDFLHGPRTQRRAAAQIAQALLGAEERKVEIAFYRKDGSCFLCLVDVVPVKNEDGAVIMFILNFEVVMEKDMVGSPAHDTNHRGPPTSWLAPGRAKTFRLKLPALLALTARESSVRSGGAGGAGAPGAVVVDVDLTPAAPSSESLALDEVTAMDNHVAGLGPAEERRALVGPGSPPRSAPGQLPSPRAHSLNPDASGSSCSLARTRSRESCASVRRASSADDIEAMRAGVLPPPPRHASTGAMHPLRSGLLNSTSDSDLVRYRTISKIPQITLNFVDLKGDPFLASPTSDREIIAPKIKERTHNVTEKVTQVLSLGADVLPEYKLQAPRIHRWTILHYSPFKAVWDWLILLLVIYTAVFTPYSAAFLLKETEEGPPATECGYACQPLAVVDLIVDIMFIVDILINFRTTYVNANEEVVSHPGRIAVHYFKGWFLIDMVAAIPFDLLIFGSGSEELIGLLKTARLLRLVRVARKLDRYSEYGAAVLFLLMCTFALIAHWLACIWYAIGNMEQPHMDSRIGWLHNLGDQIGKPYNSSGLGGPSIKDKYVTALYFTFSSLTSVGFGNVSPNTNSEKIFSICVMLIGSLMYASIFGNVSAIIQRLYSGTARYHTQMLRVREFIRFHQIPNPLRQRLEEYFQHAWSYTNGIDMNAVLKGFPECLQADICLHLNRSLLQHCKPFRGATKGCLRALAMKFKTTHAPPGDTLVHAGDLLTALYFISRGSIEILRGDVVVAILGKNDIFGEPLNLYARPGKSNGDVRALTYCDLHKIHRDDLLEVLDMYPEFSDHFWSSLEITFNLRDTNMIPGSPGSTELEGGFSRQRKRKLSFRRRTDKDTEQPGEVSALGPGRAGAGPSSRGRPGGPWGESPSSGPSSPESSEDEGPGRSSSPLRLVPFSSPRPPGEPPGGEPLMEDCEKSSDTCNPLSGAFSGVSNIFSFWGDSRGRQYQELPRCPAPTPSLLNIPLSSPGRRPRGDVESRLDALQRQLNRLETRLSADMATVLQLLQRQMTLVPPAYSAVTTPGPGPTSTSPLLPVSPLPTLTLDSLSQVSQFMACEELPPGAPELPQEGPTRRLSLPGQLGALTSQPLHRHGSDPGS

Cn1c(=O)n(C2CCC(=O)NC2=O)c2cccc(C#CCO[C@H]3CC[C@H](CN4CCC5(CC4)Cc4cc(NC(=O)c6coc7cccnc67)c(N6CCC(CO)CC6)cc4O5)CC3)c21 (some centres not stated)
half-life at 1 µM [1]: 1.98 h | inhibition at 3 µM (hERG (KCNH2)): 53% | half-life at 1 µM [2]: 2.5 h | solubility kinetic at 2 h [3]: 252 µg/mL (≈ 290 µM) | Fu [4]: < 0.08% | Fu [5]: 0.09% | clearance [6]: 3.13 mL/min/kg | Cmax [7]: 1070 ng/mL | AUC(0-t) at 24 h [8]: 23400 ng·h/mL | half-life [9]: 4.34 h | bioavailability [10]: 45% | Cmax [11]: 14.2 ng/mL | AUClast [12]: 25.89 ng·h/mL | AUClast [13]: 7093 ng·h/mL | half-life [14]: 3.43 h | F [15]: 18% | AUC(0-t) at 24 h [16]: 2670 ng·h/mL | t1/2 [17]: 8.1 h | Tmax [18]: 4 h | AUC(0-t) at 24 h [19]: 6990 ng·h/mL | bioavailability [20]: 39% | half-life [21]: 9.07 h | inhibition at 20 min, 10 µM (CYP1A2): 8.32% | inhibition at 10 min, 10 µM (CYP3A4 [22]): 19.1% | inhibition at 10 min, 10 µM (CYP3A4 [23]): 10.2% | Activity (Mus musculus [24]): Active | Activity (Mus musculus [25]): Active
